In one data set the target is DNA-PK (Homo sapiens (Human), UniProt P78527). The data set is described as follows: DNA-PK assay (biochemical), flashplate 33P-ATP kinase assay. The settings on record: biochemical DNA-PK assay. An outline of the steps:
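Reactions ran in streptavidin-coated flashplates and were halted by 200 mM EDTA, with a further 30 min at room temperature before saline washing.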

In data set [1] the target is DNA-PK phosphorylation at serine 2056 (Homo sapiens (Human), UniProt P78527). Briefly: DNA-PK phosphorylation at serine 2056 (cellular), bleomycin-treated HCT116 cells, ELISA. To be noted: cellular DNA-PK phosphorylation at serine 2056, HCT116; read-out: IC50 pDNA-PK. It counts as cell-based. Put shortly:
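HCT116 cells were treated with 10 μM bleomycin plus test compounds for six hours at 37 °C. Phospho-Ser2056 DNA-PK measured by chemiluminescent ELISA, normalised to total DNA-PKcs signal; DMSO control as blank.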
On the technique in general: In an ELISA, binding on a coated surface is turned into a signal by an enzyme label.

In a further data set the target is Kv11.1 (hERG) (Homo sapiens (Human), UniProt Q12809). The data set is described as follows: Kv11.1 (hERG) ion channel activity (patch clamp assay), HEK293 cells transfected with hERG gene. To be noted: hERG patch clamp assay (cells without asterisk). Background: The hERG channel carries a current that helps repolarise heart muscle cells.

Molecules are shown by their SMILES. Where two headings read alike, the source gives them in different places.

Sequence of Kv11.1 (hERG) (Q12809 whole entry): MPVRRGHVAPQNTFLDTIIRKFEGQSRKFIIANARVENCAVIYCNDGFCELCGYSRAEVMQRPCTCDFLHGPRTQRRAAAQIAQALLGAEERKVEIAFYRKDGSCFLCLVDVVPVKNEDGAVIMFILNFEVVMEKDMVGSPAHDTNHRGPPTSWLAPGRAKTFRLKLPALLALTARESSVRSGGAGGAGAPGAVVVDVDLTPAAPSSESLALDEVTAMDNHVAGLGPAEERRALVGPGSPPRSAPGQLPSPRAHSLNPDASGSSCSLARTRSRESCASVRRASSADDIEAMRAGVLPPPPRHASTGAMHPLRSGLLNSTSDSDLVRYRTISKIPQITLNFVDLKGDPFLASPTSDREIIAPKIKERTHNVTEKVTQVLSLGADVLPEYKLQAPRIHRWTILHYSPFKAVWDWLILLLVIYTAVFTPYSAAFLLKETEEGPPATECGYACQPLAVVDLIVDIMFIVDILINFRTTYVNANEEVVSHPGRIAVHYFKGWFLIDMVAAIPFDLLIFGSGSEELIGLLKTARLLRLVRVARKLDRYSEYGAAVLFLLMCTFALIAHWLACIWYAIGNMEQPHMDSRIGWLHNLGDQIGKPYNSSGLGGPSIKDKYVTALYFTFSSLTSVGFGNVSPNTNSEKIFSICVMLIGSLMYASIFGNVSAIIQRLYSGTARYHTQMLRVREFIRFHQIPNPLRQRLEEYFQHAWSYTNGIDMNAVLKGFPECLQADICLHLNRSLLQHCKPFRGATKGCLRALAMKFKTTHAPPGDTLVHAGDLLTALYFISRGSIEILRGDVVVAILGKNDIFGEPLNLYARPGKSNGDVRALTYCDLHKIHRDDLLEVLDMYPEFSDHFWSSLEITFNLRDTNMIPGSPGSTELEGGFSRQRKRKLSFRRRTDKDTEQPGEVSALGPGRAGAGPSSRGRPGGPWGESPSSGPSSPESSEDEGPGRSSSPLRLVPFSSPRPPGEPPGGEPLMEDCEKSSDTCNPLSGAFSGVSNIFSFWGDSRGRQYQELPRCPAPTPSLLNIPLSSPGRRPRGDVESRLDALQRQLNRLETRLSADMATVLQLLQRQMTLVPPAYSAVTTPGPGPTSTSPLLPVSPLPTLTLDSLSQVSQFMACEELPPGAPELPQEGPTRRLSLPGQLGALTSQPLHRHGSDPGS

What is called IC50 is the midpoint of a concentration-inhibition curve. In general, Ki refers to a measure of affinity in units of concentration, obtained from inhibition or displacement. As to `OC(c1cc(-c2ncnc3cc(N4CCOCC4)ccc23)c(F)cc1Cl)c1ncnc2ccoc12` (stereo not drawn) [Example 441, [2-Chloro-4-fluoro-5-(7-morpholin-4-yl-quinazolin-4-yl)-phenyl]furo[3,2-d}-pyrimidin-4-yl-methanol], the half-inhibitory concentration (IC50) was < 3 nM at DNA-PK and < 500 nM in data set [1]. The same compound gave an inhibitory constant (Ki) at Kv11.1 (hERG) (Ki [Kv1.11 hERG]) of 10000 to 15000 nM.
For `OC(c1ccc(F)c(-c2ncnc3cc(N4CCOCC4)ccc23)c1)c1ncnc2ccoc12` (stereo not drawn) [Example 442, [4-Fluoro-3-(7-morpholin-4-yl-quinazolin-4-yl)-phenyl]furo[3,2-d}-pyrimidin-4-yl-methanol], the IC50 is < 3 nM at DNA-PK and < 500 nM in data set [1]. The Ki on Kv11.1 (hERG) (read-out: Ki [Kv1.11 hERG]) was > 25000 nM.
For the compound `OC(c1cc(-c2ncnc3cc(N4CCOCC4)ccc23)c(F)cc1F)c1ncnc2ccoc12` (stereo not drawn) [Example 444, [2,4-Difluoro-5-(7-morpholin-4-yl-quinazolin-4-yl)-phenyl]furo[3,2-d}-pyrimidin-4-yl-methanol], the IC50 was < 3 nM against DNA-PK and 500 to 5000 nM in data set [1]. In addition, the inhibitory constant (Ki) at Kv11.1 (hERG) (read-out: Ki [Kv1.11 hERG]) is > 25000 nM.
With `COc1cncnc1C(O)c1cc(-c2ncnc3cc(N4CCOCC4)ccc23)c(F)cc1Cl` (stereo not drawn) [Example 447, [2-Chloro-4-fluoro-5-(7-morpholin-4-yl-quinazolin-4-yl)-phenyl]-(5-methoxy-pyrimidin-4-yl)-methanol], the IC50 at DNA-PK is < 3 nM; in data set [1] it was 500 to 5000 nM. Also, the inhibition constant Ki on Kv11.1 (hERG) (Ki [Kv1.11 hERG]) fell in the range of 10000 to 15000 nM.
Taken in the same sequence, the figures for `COc1cncnc1C(O)c1cc(-c2ncnc3cc(N4CCOCC4)ccc23)c(F)cc1F` (stereo not drawn) [Example 448, [2,4-Difluoro-5-(7-morpholin-4-yl-quinazolin-4-yl)-phenyl]-(5-methoxy-pyrimidin-4-yl)-methanol] were < 3 nM, 500 to 5000 nM and 10000 to 15000 nM.
For `OC(c1cc(-c2ncnc3cc(N4CCOCC4)ccc23)c(F)cc1F)c1nccnc1OC(F)F` (stereo not drawn) [Example 449, (3-Difluoromethoxy-pyrazin-2-yl)-[2,4-difluoro-5-(7-morpholin-4-yl-quinazolin-4-yl)-phenyl]methanol], the IC50 against DNA-PK is < 3 nM; in data set [1] it was 500 to 5000 nM. Also, at Kv11.1 (hERG) (read-out: Ki [Kv1.11 hERG]), the inhibition constant Ki was > 25000 nM.
In the case of `OC(c1cc(-c2ncnc3cc(N4CCOCC4)ccc23)c(F)cc1F)c1nccnc1OC(F)F` (stereo not drawn) [Example 450, (3-Difluoromethoxy-pyrazin-2-yl)-[2,4-difluoro-5-(7-morpholin-4-yl-quinazolin-4-yl)-phenyl]methanol], the half-inhibitory concentration (IC50) against DNA-PK was 7 to 30 nM; in data set [1], 5000 to 10000 nM. Moreover, the Ki at Kv11.1 (hERG) (Ki [Kv1.11 hERG]) is 15000 to 25000 nM.
In the case of `OC(c1cc(-c2ncnc3cc(N4CCOCC4)ccc23)c(F)cc1F)c1nccnc1OC(F)F` (stereo not drawn) [Example 451, (3-Difluoromethoxy-pyrazin-2-yl)-[2,4-difluoro-5-(7-morpholin-4-yl-quinazolin-4-yl)-phenyl]methanol], the IC50 fell in the range of 3 to 7 nM on DNA-PK and 500 to 5000 nM in data set [1]. For the same compound, at Kv11.1 (hERG) (read-out: Ki [Kv1.11 hERG]), the Ki is 15000 to 25000 nM.
Consider `OC(c1cc(-c2ncnc3cc(N4CCOCC4)ccc23)c(F)cc1Cl)c1ncnc2ccoc12` (stereo not drawn) [Example 452, [2-Chloro-4-fluoro-5-(7-morpholin-4-yl-quinazolin-4-yl)-phenyl]furo[3,2-d}-pyrimidin-4-yl-methanol], for which the half-maximal inhibitory concentration (IC50) was < 3 nM on DNA-PK and < 500 nM in data set [1]. On Kv11.1 (hERG) (Ki [Kv1.11 hERG]), the inhibitory constant (Ki) lay in the range of 10000 to 15000 nM.
The like results for `COc1nccnc1C(O)c1cc(-c2ncnc3cc(N4CCOCC4)ccc23)c(F)cc1F` (stereo not drawn) [Example 453, [2,4-Difluoro-5-(7-morpholin-4-yl-quinazolin-4-yl)-phenyl]-(3-methoxy-pyrazin-2-yl)-methanol] were, in that order, 3 to 7 nM, < 500 nM and 10000 to 15000 nM.
Turning to `COc1nccnc1C(O)c1cc(-c2ncnc3cc(N4CCOCC4)ccc23)c(F)cc1F` (stereo not drawn) [Example 454, [2,4-Difluoro-5-(7-morpholin-4-yl-quinazolin-4-yl)-phenyl]-(3-methoxy-pyrazin-2-yl)-methanol], the values for the IC50 (against DNA-PK; in data set [1]) were < 3 nM and < 500 nM, respectively. On Kv11.1 (hERG) (read-out: Ki [Kv1.11 hERG]), the Ki was > 25000 nM.
With `COc1nccnc1[C@H](O)c1cc(-c2ncnc3cc(N4CCOCC4)ccc23)c(F)cc1Cl` [Example 455, (R)-[2-Chloro-4-fluoro-5-(7-morpholin-4-yl-quinazolin-4-yl)-phenyl]-(3-methoxy-pyrazin-2-yl)-methanol], the IC50 was < 3 nM on DNA-PK and < 500 nM in data set [1]. The same compound yielded a Ki on Kv11.1 (hERG) (Ki [Kv1.11 hERG]) of 15000 to 25000 nM.
Taken in the same sequence, the figures for `COc1nccnc1[C@@H](O)c1cc(-c2ncnc3cc(N4CCOCC4)ccc23)c(F)cc1Cl` [Example 456, (S)-(2-Chloro-4-fluoro-5-(7-morprholin-4-yl-quinazolin-4-yl)-pnenyl]-(3-methoxy-pyrazin-2-yl)-methanol] were < 3 nM, < 500 nM and 10000 to 15000 nM.
`Cc1nccnc1C(O)c1cc(-c2ncnc3cc(N4CCOCC4)ccc23)c(F)cc1Cl` (stereo not drawn) [Example 457, [2-Chloro-4-fluoro-5-(7-morpholin-4-yl-quinazolin-4-yl)-phenyl]-(3-methyl-pyrazin-2-yl)-methanol]: the half-maximal inhibitory concentration (IC50) was 3 to 7 nM on DNA-PK and < 500 nM in data set [1]. The Ki at Kv11.1 (hERG) (read-out: Ki [Kv1.11 hERG]) is > 25000 nM.
Turning to `COc1ccc(C(O)c2cc(-c3ncnc4cc(N5CCOCC5)ccc34)ccc2Cl)nn1` (stereo not drawn) [Example 458, [2-Chloro-5-(7-morpholin-4-yl-quinazolin-4-yl)-phenyl]-(6-methoxy-pyridazin-3-yl)-methanol], the values for the IC50 (against DNA-PK; in data set [1]) were < 3 nM and < 500 nM, respectively. The compound further had an inhibition constant (Ki) on Kv11.1 (hERG) (Ki [Kv1.11 hERG]) of 10000 to 15000 nM.
Taken in the same sequence, the figures for `CCOc1cccnc1C(O)c1ccc(F)c(-c2ncnc3cc(N4CCOCC4)ccc23)c1` (stereo not drawn) [Example 463, (3-Ethoxy-pyridin-2-yl)-[4-fluoro-3-(7-morpholin-4-yl-quinazolin-4-yl)-phenyl]methanol] were 3 to 7 nM, < 500 nM and 15000 to 25000 nM.
Take `OC(c1ccc(F)c(-c2ncnc3cc(N4CCOCC4)ccc23)c1)c1nccnc1OC(F)F` (stereo not drawn) [Example 464, (3-Difluoromethoxy-pyrazin-2-yl)-[4-fluoro-3-(7-morpholin-4-yl-quinazolin-4-yl)-phenyl]methanol]: the half-inhibitory concentration (IC50) was in the range of 3 to 7 nM on DNA-PK and 500 to 5000 nM in data set [1]. Also, on Kv11.1 (hERG) (Ki [Kv1.11 hERG]), the inhibitory constant (Ki) is 15000 to 25000 nM.
The like results for `OC(c1ccc(F)c(-c2ncnc3cc(N4CCOCC4)ccc23)c1)c1ncccc1Cl` (stereo not drawn) [Example 465, (3-Chloro-pyridin-2-yl)-[4-fluoro-3-(7-morpholin-4-yl-quinazolin-4-yl)-phenyl]methanol] were, in that order, < 3 nM, < 500 nM and 15000 to 25000 nM.
As for `OC(c1ccc(F)c(-c2ncnc3cc(N4CCOCC4)ccc23)c1)c1ncccc1Cl` (stereo not drawn) [Example 466, (3-Chloro-pyridin-2-yl)-[4-fluoro-3-(7-morpholin-4-yl-quinazolin-4-yl)-phenyl]methanol], the IC50 against DNA-PK was 7 to 30 nM; in data set [1] it was 500 to 5000 nM. In addition, at Kv11.1 (hERG) (read-out: Ki [Kv1.11 hERG]), the inhibitory constant (Ki) was in the range of 15000 to 25000 nM.
`COc1nccnc1C(O)c1cc(-c2ncnc3cc(N4CCOCC4)ccc23)c(F)cc1F` (stereo not drawn) [Example 467, [2,4-Difluoro-5-(7-morpholin-4-yl-quinazolin-4-yl)-phenyl]-(3-methoxy-pyrazin-2-yl)-methanol]: the results for the concentration for half-maximal inhibition (IC50) (at DNA-PK; in data set [1]) were 3 to 7 nM and < 500 nM, respectively. For the same compound, the Ki at Kv11.1 (hERG) (read-out: Ki [Kv1.11 hERG]) was > 25000 nM.
In the case of `COc1nccnc1C(O)c1cc(-c2ncnc3cc(N4CCOCC4)ccc23)c(F)cc1Cl` (stereo not drawn) [Example 468, [2-Chloro-4-fluoro-5-(7-morpholin-4-yl-quinazolin-4-yl)-phenyl]-(3-methoxy-pyrazin-2-yl)-methanol], the IC50 on DNA-PK is < 3 nM; in data set [1] it was < 500 nM. This compound also had a Ki at Kv11.1 (hERG) (Ki [Kv1.11 hERG]) of 15000 to 25000 nM.
As to `Cc1cccnc1C(O)c1ccc(F)c(-c2ncnc3cc(N4CCOCC4)ccc23)c1` (stereo not drawn) [Example 472, [4-Fluoro-3-(7-morpholin-4-yl-quinazolin-4-yl)-phenyl]-(3-methyl-pyridin-2-yl)methanol], the figures for the IC50 (against DNA-PK; in data set [1]) were 3 to 7 nM and < 500 nM, respectively. For the same compound, the Ki at Kv11.1 (hERG) (read-out: Ki [Kv1.11 hERG]) was > 25000 nM.
Regarding `COc1cnc(C(O)c2ccc(F)c(-c3ncnc4cc(N5CCOCC5)ccc34)c2)c(Br)c1` (stereo not drawn) [Example 473, (3-bromo-5-methoxy-pyridin-2-yl)-[4-fluoro-3-(7-morpholin-4-yl-quinazolin-4-yl)-phenyl]methanol], the figures for the IC50 (against DNA-PK; in data set [1]) were 3 to 7 nM and < 500 nM, respectively. This compound registered an inhibitory constant (Ki) on Kv11.1 (hERG) (Ki [Kv1.11 hERG]) of 15000 to 25000 nM.
Taken in the same sequence, the figures for `OC(c1cn2ccsc2n1)c1cc(-c2ncnc3cc(N4CCOCC4)ccc23)c(F)cc1F` (stereo not drawn) [Example 474, [2,4-Difluoro-5-(7-morpholin-4-yl-quinazolin-4-yl)-phenyl]imidazo-[2,1-b]thiazol-6-yl-methanol] were > 30 nM, 10000 to 30000 nM and 10000 to 15000 nM.
The like results for `OC(c1ccc(F)c(-c2ncnc3cc(N4CCOCC4)ccc23)c1)c1ncccc1OC(F)(F)F` (stereo not drawn) [Example 475, [4-Fluoro-3-(7-morpholin-4-yl-quinazolin-4-yl)-phenyl]-(3-trifluoro-methoxypyridin-2-yl)-methanol] were, in that order, < 3 nM, < 500 nM and 15000 to 25000 nM.
As to `OC(c1ccc(F)c(-c2ncnc3cc(N4CCOCC4)ccc23)c1)c1nccnc1C(F)(F)F` (stereo not drawn) [Example 476, [4-Fluoro-3-(7-morpholin-4-yl-quinazolin-4-yl)-phenyl]-(3-trifluoro-methylpyrazin-2-yl)-methanol], the concentration for half-maximal inhibition (IC50) against DNA-PK is 3 to 7 nM; in data set [1], < 500 nM. Also, the Ki at Kv11.1 (hERG) (read-out: Ki [Kv1.11 hERG]) is > 25000 nM.

Source of the values: patent publication US9732094B2, “Arylquinazolines” (Merck Patent GmbH, priority 2013, dated 2017).
